Data as given in PMC12689286, “Enhanced therapeutics of cabazitaxel via polycarboxylate conjugation: improved solubility, safety, and antitumor efficacy” (Frontiers in Immunology, 2025).

Assays:
[1] = test system: DU145 cells; assay: Cell cycle arrest (PI, flow cytometry); assay type: cell-based, human; settings: 24 h
Method: Cells were incubated with drugs for 24 h. Fixed cells were incubated with RNase A and stained with propidium iodide (PI). DNA content was determined in a flow cytometer (BD FACS CaliburTM Flow Cytometer, USA) ([23]).

[2] = test system: H520; assay: MTS cytotoxicity, H520; assay type: cell-based; settings: Homo sapiens, NCI-H520
Method: (§1) Human cancer cell lines were cultured in basic medium (10% fetal bovine serum (FBS)+1% double antibody solution) (Biological Industries) at 37°C in a 5% CO2 incubator. Effects of CTXs on cell proliferation and viability were measured by an MTS (Promega Corporation) assay. Absorbance values at 490 nm were measured using a microplate reader (Thermo Scientific, Varioskan Flash) ([22]).

[3] = test system: H22 hepatocellular carcinoma tumors; assay: H22 hepatoma model, tumor growth inhibition; assay type: in vivo, KM mice; settings: every other day
Method: H22 hepatoma model: Female KM mice were subcutaneously implanted with H22 cells (2×10^6 cells/mouse) and assigned to six groups: (a) Vehicle control; (b) CTX (9.6 μmol/kg in 5% glucose with 2.5% ethanol/2.5% Tween 80); (c) CTX-TTHA (9.6 μmol/kg in saline); (d) CTX-DTPA (9.6 μmol/kg in saline); (e) CTX-TTHA (19.1 μmol/kg in saline); (f) CTX-DTPA (19.1 μmol/kg in saline).
Treatments were administered every other day for four doses (three doses for CTX group due to weight loss >15%). Peripheral blood samples were collected for complete blood count analysis using an automated hematology analyzer.

[4] = test system: MCF-7 xenografts; assay: MCF-7 breast cancer xenograft, tumor volume; assay type: in vivo, BALB/c nude mice; settings: MCF-7 xenograft, 9.6 μmol/kg
Method: All animal experiments were conducted in accordance with protocols approved by the Institutional Animal Care and Use Committee of Peking Union Medical College. Male BALB/c nude mice (6–8 weeks old) and female KM mice (6–8 weeks old) were purchased from Charles River Laboratories (Beijing, China) and maintained under specific pathogen-free conditions.
MCF-7 Breast Cancer Model: Female BALB/c nude mice bearing MCF-7 xenografts (2×10^6 cells/mouse) were randomized into treatment groups as described above, with an adjusted dose of 9.6 μmol/kg for all CTX formulations.

[5] = test system: L-02; assay: MTS cytotoxicity, L-02 (non-tumor); assay type: cell-based; settings: Homo sapiens, L02, L-02 non-tumor cell line
Method: as §1

[6] = test system: HCT 116; assay: MTS cytotoxicity, HCT 116; assay type: cell-based; settings: Homo sapiens; HCT 116, MTS
Method: as §1

[7] = Hemolysis test; assay type: cell-based, SD rats; settings: SD, rat, rat red blood cells, 2% (v/v) suspension, 37 °C, 1.5 h
Method: The hemolytic potential of CTX formulations was evaluated using rat red blood cells (RBCs). Briefly, whole blood was collected from the abdominal aorta of anesthetized SD rats into ACD anticoagulant (blood:ACD = 1:4, v/v). The blood was diluted with normal saline (4:5, v/v) and centrifuged at 450 g for 10 min. The RBC pellet was washed three times with normal saline until the supernatant was clear. The washed RBCs were then resuspended in normal saline to prepare a 2% (v/v) suspension.
For the assay, 500 μL of the 2% RBC suspension was mixed with an equal volume of serially diluted drugs or controls in 1.5 mL tubes. The controls included: Negative control (0% hemolysis): normal saline. Positive control (100% hemolysis): distilled water. Solvent control: the vehicle for unmodified CTX (2.5% Tween 80 + 2.5% anhydrous ethanol + 95% normal saline). The mixtures were incubated at 37 °C for 1.5 h and then centrifuged at 450 g for 5 min. Subsequently, 150 μL of the supernatant from each tube was transferred to a 96-well plate, and the absorbance at 545 nm (OD545) was measured using a microplate reader. The percentage of hemolysis was calculated using the following formula: Hemolysis (%) = [(ODsample - ODnegative control)/(ODpositive control - ODnegative control)] × 100.

[8] = test system: PC-3; assay: MTS cytotoxicity, PC-3; assay type: cell-based; settings: Homo sapiens; PC-3, MTS
Method: as §1

[9] = test system: H460; assay: MTS cytotoxicity, H460; assay type: cell-based; settings: Homo sapiens, NCI-H460
Method: as §1

[10] = Tissue distribution; settings: for concentration at 15 min / concentration at 2 h / concentration at 4 h / concentration at 12 h: both, SD, rat, iv, 6 μmol/kg
Method: Male and female SD rats (200–220 g) received intravenous injections of CTX or CTX-DTPA (6 μmol/kg). CTX was dissolved in 2.5% Tween 80/2.5% EtOH/saline, while CTX-DTPA used saline alone. Blood samples were collected at 5 min to 24 h post-dose. Tissues (heart, liver, spleen, lung, kidney, thymus) and excreta were collected at 15 min, 2 h, 4 h, and 12 h. Plasma and tissue samples were processed by liquid-liquid extraction with n-butanol and analyzed via LC-MS/MS (Agilent Poroshell 120 EC-C18 column; 0.05% formic acid/acetonitrile gradient). Pharmacokinetic parameters were calculated using DAS 2.0 via non-compartmental analysis.

[11] = test system: SK-OV-3; assay: MTS cytotoxicity, SK-OV-3; assay type: cell-based; settings: Homo sapiens; SK-OV-3, MTS
Method: as §1

[12] = test system: MCF-7; assay: MTS cytotoxicity, MCF-7; assay type: cell-based; settings: Homo sapiens, MCF7; MCF-7, MTS
Method: as §1

[13] = test system: H358; assay: MTS cytotoxicity, H358; assay type: cell-based; settings: Homo sapiens, NCI-H358
Method: as §1

[14] = test system: 3T3; assay: MTS cytotoxicity, 3T3 (non-tumor); assay type: cell-based; settings: Mus musculus, NIH3T3, 3T3 non-tumor cell line
[15] = test system: Fadu; assay: MTS cytotoxicity, Fadu; assay type: cell-based; settings: Homo sapiens
Method: as §1

[16] = test system: DU145; assay: MTS cytotoxicity, DU145; assay type: cell-based; settings: Homo sapiens, DU-145
Method: as §1

Compound: CO[C@H]1C(=O)[C@]2(C)[C@@H](OC)C[C@H]3OC[C@@]3(OC(C)=O)[C@H]2[C@H](OC(=O)c2ccccc2)[C@]2(O)C[C@H](OC(=O)[C@H](O)[C@@H](NC(=O)OC(C)(C)C)c3ccccc3)C(C)=C1C2(C)C [CTX, Cabazitaxel]
- cells arrested in G2/M ([1]; DU145, 1 nM): 16.5 ± 0.7%
- cells arrested in G2/M ([1]; DU145, 25 nM): 65.5 ± 19.9%
- IC50 [2]: 1.5 ± 0.7 nM
- tumor growth inhibition ([3]; H22, 9.6 μmol/kg, three doses): 30.8%
- tumor volume at study endpoint [4]: 56 ± 12 mm³
- IC50 [5]: 7.8 ± 1.5 nM
- IC50 [6]: 2.2 ± 1.1 nM
- hemolysis at 1.5 h, 4.7 nmol/mL ([7]; 4.7 nmol/mL, read-out: hemolysis rate): 11 ± 3.2%
- hemolysis at 1.5 h, 75 nmol/mL ([7]; 75 nmol/mL, read-out: hemolysis rate): 73.4 ± 5.8%
- IC50 [8]: 5.2 ± 1.7 nM
- IC50 [9]: 2.4 ± 1.3 nM
- concentration at 15 min ([10]; heart): 43.2 ± 12.9 ng/g
- concentration at 2 h ([10]; heart): 24.6 ± 2.33 ng/g
- concentration at 4 h ([10]; heart): 16 ± 1.91 ng/g
- concentration at 12 h ([10]; heart): 12.6 ± 2.69 ng/g
- concentration at 15 min ([10]; kidney): 550 ± 12 ng/g
- concentration at 2 h ([10]; kidney): 313 ± 47.5 ng/g
- concentration at 4 h ([10]; kidney): 308 ± 41.5 ng/g
- concentration at 12 h ([10]; kidney): 218 ± 15.9 ng/g
- concentration at 15 min ([10]; liver): 149 ± 7.27 ng/g
- concentration at 2 h ([10]; liver): 78.7 ± 10.6 ng/g
- concentration at 4 h ([10]; liver): 48.7 ± 11.5 ng/g
- concentration at 12 h ([10]; liver): 29.3 ± 11.5 ng/g
- concentration at 15 min ([10]; lung): 133 ± 15 ng/g
- concentration at 2 h ([10]; lung): 117 ± 4.61 ng/g
- concentration at 4 h ([10]; lung): 106.8 ± 0.42 ng/g
- concentration at 12 h ([10]; lung): 79 ± 30.9 ng/g
- concentration at 15 min ([10]; spleen): 250 ± 38.3 ng/g
- concentration at 2 h ([10]; spleen): 160 ± 2.24 ng/g
- concentration at 4 h ([10]; spleen): 113 ± 21 ng/g
- concentration at 12 h ([10]; spleen): 54 ± 8.47 ng/g
- concentration at 15 min ([10]; thymus): 87.8 ± 23.5 ng/g
- concentration at 2 h ([10]; thymus): 129 ± 50 ng/g
- concentration at 4 h ([10]; thymus): 110 ± 41.8 ng/g
- concentration at 12 h ([10]; thymus): 67.2 ± 4.15 ng/g
- IC50 [11]: 4.4 ± 0.9 nM
- IC50 [12]: 5.3 ± 1.9 nM
- IC50 [13]: 1.2 ± 0.6 nM
- IC50 [14]: 8.7 ± 3.2 nM
- IC50 [15]: 1.6 ± 0.4 nM
- IC50 [16]: 6.1 ± 2.4 nM

Compound: COC1C(=O)C2(C)C(OC)CC3OCC3(OC(C)=O)C2C(OC(=O)c2ccccc2)C2(O)CC(OC(=O)C(OC(=O)CN(CCN(CCN(CC(=O)O)CC(=O)O)CC(=O)O)CC(=O)O)C(NC(=O)OC(C)(C)C)c3ccccc3)C(C)=C1C2(C)C (stereo not drawn) [CTX-DTPA]
- cells arrested in G2/M ([1]; DU145, 1 nM): 16.4 ± 1.0%
- cells arrested in G2/M ([1]; DU145, 25 nM): 58.9 ± 16.1%
- IC50 [2]: 2 ± 1.3 nM
- tumor growth inhibition ([3]; H22, high dose 19.1 μmol/kg in saline, four doses): 80.5%
- tumor volume at study endpoint [4]: 111 ± 18 mm³
- IC50 [5]: 8.8 ± 3.6 nM
- IC50 [6]: 3.7 ± 1 nM
- hemolysis at 1.5 h, 300 nmol/mL ([7]; 300 nmol/mL (maximum tested), read-out: hemolysis rate): 12.1 ± 9.2%
- hemolysis at 1.5 h ([7]; concentrations up to 150 nmol/mL): < 2%
- IC50 [8]: 4.1 ± 0.7 nM
- IC50 [9]: 2.4 ± 1.1 nM
- concentration at 15 min ([10]; in vivo, tissue concentration, spleen, 15 min, SD rats 6 μmol/kg iv, dosed compound): 0.39 ± 0.04 ng/g
- concentration at 15 min ([10]; in vivo, tissue concentration, thymus, 15 min, SD rats 6 μmol/kg iv, dosed compound): 0.62 ± 0.05 ng/g
- tissue concentration ([10]; heart, 15 min, SD rats 6 μmol/kg iv, dosed compound): * 0.27 ± 0.04 μg/kg
- tissue concentration ([10]; heart, 2 h, SD rats 6 μmol/kg iv, dosed compound): *** 0.07 ± 0.03 μg/kg
- tissue concentration ([10]; heart, 4 h, SD rats 6 μmol/kg iv, dosed compound): *** 0.04 ± 0.00 μg/kg
- tissue concentration ([10]; heart, 12 h, SD rats 6 μmol/kg iv, dosed compound): ** 0.06 ± 0.03 μg/kg
- tissue concentration ([10]; kidney, 15 min, SD rats 6 μmol/kg iv, dosed compound): **** 41.08 ± 9.73 μg/kg
- tissue concentration ([10]; kidney, 2 h, SD rats 6 μmol/kg iv, dosed compound): ** 4.96 ± 1.67 μg/kg
- tissue concentration ([10]; kidney, 4 h, SD rats 6 μmol/kg iv, dosed compound): *** 1.55 ± 0.31 μg/kg
- tissue concentration ([10]; kidney, 12 h, SD rats 6 μmol/kg iv, dosed compound): **** 1.36 ± 0.84 μg/kg
- tissue concentration ([10]; liver, 15 min, SD rats 6 μmol/kg iv, dosed compound): *** 37.74 ± 16.89 μg/kg
- tissue concentration ([10]; liver, 2 h, SD rats 6 μmol/kg iv, dosed compound): ** 7.21 ± 1.30 μg/kg
- tissue concentration ([10]; liver, 4 h, SD rats 6 μmol/kg iv, dosed compound): * 6.74 ± 5.04 μg/kg
- tissue concentration ([10]; liver, 12 h, SD rats 6 μmol/kg iv, dosed compound): * 0.65 ± 0.42 μg/kg
- tissue concentration ([10]; lung, 15 min, SD rats 6 μmol/kg iv, dosed compound): *** 2.36 ± 1.29 μg/kg
- tissue concentration ([10]; lung, 2 h, SD rats 6 μmol/kg iv, dosed compound): **** 0.48 ± 0.50 μg/kg
- tissue concentration ([10]; lung, 4 h, SD rats 6 μmol/kg iv, dosed compound): **** 0.13 ± 0.01 μg/kg
- tissue concentration ([10]; lung, 12 h, SD rats 6 μmol/kg iv, dosed compound): * 1.10 ± 0.45 μg/kg
- tissue concentration ([10]; spleen, 15 min, SD rats 6 μmol/kg iv, dosed compound): *** 0.39 ± 0.04 μg/kg
- tissue concentration ([10]; spleen, 2 h, SD rats 6 μmol/kg iv, dosed compound): **** 0.09 ± 0.03 μg/kg
- tissue concentration ([10]; spleen, 4 h, SD rats 6 μmol/kg iv, dosed compound): ** 0.05 ± 0.02 μg/kg
- tissue concentration ([10]; spleen, 12 h, SD rats 6 μmol/kg iv, dosed compound): ** 0.05 ± 0.03 μg/kg
- tissue concentration ([10]; thymus, 15 min, SD rats 6 μmol/kg iv, dosed compound): ** 0.62 ± 0.05 μg/kg
- tissue concentration ([10]; thymus, 2 h, SD rats 6 μmol/kg iv, dosed compound): * 0.10 ± 0.07 μg/kg
- tissue concentration ([10]; thymus, 4 h, SD rats 6 μmol/kg iv, dosed compound): * 0.05 ± 0.01 μg/kg
- tissue concentration ([10]; thymus, 12 h, SD rats 6 μmol/kg iv, dosed compound): **** 0.06 ± 0.04 μg/kg
- IC50 [11]: 5.4 ± 1.3 nM
- IC50 [12]: 6.8 ± 2.4 nM
- IC50 [13]: 1.6 ± 0.7 nM
- IC50 [14]: 8.3 ± 2.7 nM
- IC50 [15]: 1.9 ± 0.6 nM
- IC50 [16]: 5.1 ± 1.4 nM
